Measurements published in patent US5185347A, “Piperidine compounds and antiulcer composition containing the same” (Meiji Seika Kaisha Ltd., priority 1990, dated 1993).

Assays:
[1] = tested on: Water Immersion Restraint Stress-Induced Ulcer; assay: Test on Water Immersion Restraint Stress-Induced Ulcer; type: in vivo, Wister male rat; conditions: 30 mg/5 ml/kg-b.w. in 0.5% CMC, 1 hour before stress, water immersion restraint 6 hours, 20 to 22° C., ulcer index = sum of longer diameters (mm); for inhibition in vivo at 30 mg/kg: Rattus norvegicus, read-out: Percent Inhibition on Ulceration
Experimental: 1) Test on Water Immersion Restraint Stress-Induced Ulcer:
A 11-week-old Wister male rat having been deprived of food for 18 hours was restrained in a cage and immersed chest-deep in water at 20 to 22° C. for 6 hours to impose a stress. The rat taken out of water was sacrificed by cervical dislocation, the stomach removed, 5 ml of a 5% formalin aqueous solution poured into the stomach, and the whole stomach was soaked in the same solution for 30 minutes. The thus fixed sample was opened along the greater curvature. The longer diameter (mm) of ulcers formed was measured with a slide caliper, and the sum was taken as an ulcer index. Each of test compounds shown in Table 1 below was suspended in a 0.5% carboxymethylcellulose (CMC) solution and administered to the rat (test group) at a dose level of 30 mg/5 ml/kg-b.w. 1 hour before imposition of a stress. Only a 0.5% CMC solution (5 ml) was administered to a control group. A percent inhibition of ulceration was obtained from equation: [formula]

Toxicity (oral LD50) = conditions: in vivo, orally administering, species not given
Source text: The compounds of the present invention are of low toxicity.

Ethanol-Induced Ulcer = assay: Ethanol-Induced Ulcer; type: in vivo, Donryu male rat; conditions: orally, 30 mg/5 ml/kg-b.w. in 0.5% CMC, one hour before 5 ml/kg-b.w. of 100% ethanol
Experimental: 2) Ethanol-Induced Ulcer:
A Donryu male rat having been deprived of food for 48 hours and of water for 24 hours orally received 5 ml/kg-b.w. of 100% ethanol. One hour later, the rat was sacrificed in the same manner as described in (1) above, the stomach removed and treated in the same manner as above. The test compound (the compound of Example 2) was suspended in a 0.5% CMC solution and orally administered to the rat at a dose of 30 mg/5 ml/kg-b.w. one hour before administration of ethanol.

Molecule	inhibition in vivo at 30 mg/kg [1] [%]	also measured
CC1(C)CCCC(C)(C)N1CCSc1nc2cc(CC(NC(=O)c3ccc(Cl)cc3)C(N)=O)ccc2[nH]1 (stereo not shown) [Example 3, 5-[2-Carbamoyl-2-(p-chlorobenzoyl)amino]ethyl-2-[2-(2,2,6,6-tetramethylpiperidin-1-yl)ethylthio]benzimidazole]	62	
Cc1ccc2nc(SCCN3C(C)(C)CCCC3(C)C)[nH]c2c1 [Example 6, 5-Methyl-2-[2-(2,2,6,6-tetramethylpiperidin-1-yl)ethylthio]benzimidazole]	95	
5(6)-(2-Acetylamino-2-ethoxycarbonyl)ethyl-l-[2-(2,2,6,6-tetramethylpiperidin-1-yl)]ethyl-2-[2-(2,2,6,6-tetramethylpiperidin-1-yl)ethylthio]benzimidazole [Example 12]		Percent Inhibition on Ulceration [1]: 87%
CC1(C)CCCC(C)(C)N1CCSc1nc2cc(CO)ccc2[nH]1 [Example 7]	97	
Cn1c(SCCN2C(C)(C)CCCC2(C)C)nc2ccccc21 [Example 10]	100	
CC1(C)CCCC(C)(C)N1CCSc1nc2ccccc2[nH]1 [Example 9]	97	
CCOC(=O)C(Cc1ccc2[nH]c(SCCN3C(C)(C)CCCC3(C)C)nc2c1)NC(C)=O (stereo not shown) [Example 5, 5-[2-Acetylamino-2-ethoxycarbonyl)ethyl-2-[2-(2,2,6,6-tetramethylpiperidin-1-yl)ethylthio]benzimidazole]	97	LD50 (Toxicity (oral LD50)): > 1000 mg/kg
CC1(C)CCCC(C)(C)N1CCSc1nc2cc(CC(NC(=O)c3ccc(Cl)cc3)C(=O)O)ccc2[nH]1 (stereo not shown) [Example 4, 5-[2-Carboxy-2-(p-chlorobenzoyl)amino]ethyl-2-[2-(2,2,6,6-tetramethylpiperidin-1-yl)ethylthio]benzimidazole]	40	
COc1ccc2nc(SCCN3C(C)(C)CCCC3(C)C)[nH]c2c1 [Example 1, 5-Methoxy-2-[2-(2,2,6,6-tetramethylpiperidin-1-yl)ethylthio]benzimidazole]	92	LD50 (Toxicity (oral LD50)): > 1000 mg/kg
CC1(C)CCCC(C)(C)N1CCSc1nc2ccccc2n1Cc1ccccc1 [Example 11]	95	
COC(=O)c1ccc2[nH]c(SCCN3C(C)(C)CCCC3(C)C)nc2c1 [Example 8]	98	
CCOC(=O)C(Cc1ccc2[nH]c(SCCN3C(C)(C)CCCC3(C)C)nc2c1)NC(=O)c1ccc(Cl)cc1 (stereo not shown) [Example 2]	97	inhibition on erosion (Ethanol-Induced Ulcer): 80%; LD50 (Toxicity (oral LD50)): > 1000 mg/kg
